Measurements taken from patent US10456407B2, “Combination therapy for treating cancer” (Epizyme, Inc., priority 2015, dated 2019).

Tested on: OCI-Ly19 cells
Assay: RT2 Glucocorticoid signaling PCR array, OCI-LY19 (Table 4a, printed OCT) cell line
Assay type: cell-based
Details: vs DMSO; for ΔΔCT, ADARB1: gene ADARB1; for ΔΔCT, AK2: gene AK2; for ΔΔCT, ANGPTL4: gene ANGPTL4; for ΔΔCT, ARID68: gene ARID68; for ΔΔCT, ASPH: gene ASPH; for ΔΔCT, ATF4: gene ATF4; for ΔΔCT, BCL6: gene BCL6; for ΔΔCT, CEBPB: gene CEBPB; for ΔΔCT COL4A2: gene COL4A2; for ΔΔCT, CREB3L4: gene CREB3L4; for ΔΔCT CTGF: gene CTGF; for ΔΔCT, DDIT4: gene DDIT4; for ΔΔCT, DUSP1: gene DUSP1; for ΔΔCT, EHD3: gene EHD3; for ΔΔCT, FK8PS: gene FK8PS; for ΔΔCT, FOSL2: gene FOSL2; for ΔΔCT, GDPD1: gene GDPD1; for ΔΔCT GLUL: gene GLUL; for ΔΔCT, H6PD: gene H6PD; for ΔΔCT, HNRPLL: gene HNRPLL; for ΔΔCT, KLF9: gene KLF9; for ΔΔCT, KLF13: gene KLF13; for ΔΔCT, LOX: gene LOX; for ΔΔCT MERTK: gene MERTK; for ΔΔCT MTZA: gene MTZA; for ΔΔCT, NFKBIA: gene NFKBIA; for ΔΔCT, NR3C1: gene NR3C1; for ΔΔCT PDCC7: gene PDCC7; for ΔΔCT PDGFRB: gene PDGFRB; for ΔΔCT, PDP1: gene PDP1; for ΔΔCT, PIK3R1: gene PIK3R1; for ΔΔCT, PLEKHF1: gene PLEKHF1; for ΔΔCT, POU2F1: gene POU2F1; for ΔΔCT, POU2F2: gene POU2F2; for ΔΔCT, RASA3: gene RASA3; for ΔΔCT, RHOB: gene RHOB; for ΔΔCT, SESN1: gene SESN1; for ΔΔCT, SGK1: gene SGK1; for ΔΔCT, SLC10A6: gene SLC10A6; for ΔΔCT, SLC19A2: gene SLC19A2; for ΔΔCT, SLC22A5: gene SLC22A5; for ΔΔCT, SNTA1: gene SNTA1; for ΔΔCT, SPHK1: gene SPHK1; for ΔΔCT, STAT5A: gene STAT5A; for ΔΔCT, STAT5B: gene STAT5B; for ΔΔCT, TNFAIP3: gene TNFAIP3; for ΔΔCT, TSC22D3: gene TSC22D3; for ΔΔCT, USP2: gene USP2; for ΔΔCT, USPS4: gene USPS4; for ΔΔCT, VDR: gene VDR; for ΔΔCT, ZHX3: gene ZHX3; for ΔΔCT, ZNF281: gene ZNF281

## CCN(c1cc(-c2ccc(CN3CCOCC3)cc2)cc(C(=O)NCc2c(C)cc(C)[nH]c2=O)c1C)C1CCOCC1 [Compound 44]
  ΔΔCT, ADARB1: −0.789
  ΔΔCT, AK2: −0.017
  ΔΔCT, ANGPTL4: −0.305
  ΔΔCT, ARID68: 0.232
  ΔΔCT, ASPH: −0.584
  ΔΔCT, ATF4: 0.124
  ΔΔCT, BCL6: −1.395
  ΔΔCT, CEBPB: 0.390
  ΔΔCT COL4A2: 0.309
  ΔΔCT, CREB3L4: −0.376
  ΔΔCT CTGF: −0.052
  ΔΔCT, DDIT4: −0.749
  ΔΔCT, DUSP1: −0.395
  ΔΔCT, EHD3: −1.081
  ΔΔCT, FK8PS: −0.319
  ΔΔCT, FOSL2: −0.226
  ΔΔCT, GDPD1: −0.020
  ΔΔCT GLUL: −0.745
  ΔΔCT, H6PD: −0.915
  ΔΔCT, HNRPLL: −0.346
  ΔΔCT, KLF9: −1.215
  ΔΔCT, KLF13: −0.452
  ΔΔCT, LOX: −0.733
  ΔΔCT MERTK: −0.805
  ΔΔCT MTZA: −0.118
  ΔΔCT, NFKBIA: 0.019
  ΔΔCT, NR3C1: −0.023
  ΔΔCT PDCC7: 0.024
  ΔΔCT PDGFRB: 0.934
  ΔΔCT, PDP1: −0.518
  ΔΔCT, PIK3R1: −0.274
  ΔΔCT, PLEKHF1: −0.736
  ΔΔCT, POU2F1: −0.120
  ΔΔCT, POU2F2: 0.031
  ΔΔCT, RASA3: −0.075
  ΔΔCT, RHOB: −1.378
  ΔΔCT, SESN1: −0.253
  ΔΔCT, SGK1: −0.458
  ΔΔCT, SLC10A6: −1.185
  ΔΔCT, SLC19A2: −0.211
  ΔΔCT, SLC22A5: −0.367
  ΔΔCT, SNTA1: −0.908
  ΔΔCT, SPHK1: 0.016
  ΔΔCT, STAT5A: 0.113
  ΔΔCT, STAT5B: −0.121
  ΔΔCT, TNFAIP3: 0.317
  ΔΔCT, TSC22D3: −0.671
  ΔΔCT, USP2: −2.822
  ΔΔCT, USPS4: 0.165
  ΔΔCT, VDR: −0.553
  ΔΔCT, ZHX3: −0.394
  ΔΔCT, ZNF281: 0.531
Gene IL1RN
  ΔΔCT, IL1RN: −1.244
Gene ZFP36
  ΔΔCT, ZFP36: 0.427

## C[C@]12C=CC(=O)C=C1CC[C@@H]1[C@@H]2[C@@H](O)C[C@@]2(C)[C@H]1CC[C@]2(O)C(=O)CO [Prednisolone, prednisolone]
  ΔΔCT, ADARB1: −0.049
  ΔΔCT, AK2: −0.063
  ΔΔCT, ANGPTL4: −0.754
  ΔΔCT, ARID68: −0.079
  ΔΔCT, ASPH: 0.346
  ΔΔCT, ATF4: 0.456
  ΔΔCT, BCL6: 0.239
  ΔΔCT, CEBPB: 0.686
  ΔΔCT COL4A2: 1.601
  ΔΔCT, CREB3L4: 0.152
  ΔΔCT CTGF: −1.080
  ΔΔCT, DDIT4: −1.173
  ΔΔCT, DUSP1: 0.164
  ΔΔCT, EHD3: −0.773
  ΔΔCT, FK8PS: −0.873
  ΔΔCT, FOSL2: −0.480
  ΔΔCT, GDPD1: 1.130
  ΔΔCT GLUL: −0.090
  ΔΔCT, H6PD: −0.483
  ΔΔCT, HNRPLL: −0.156
  ΔΔCT, KLF9: −1.571
  ΔΔCT, KLF13: −0.075
  ΔΔCT, LOX: −1.179
  ΔΔCT MERTK: −0.277
  ΔΔCT MTZA: −0.169
  ΔΔCT, NFKBIA: 0.043
  ΔΔCT, NR3C1: −0.286
  ΔΔCT PDCC7: 4.571
  ΔΔCT PDGFRB: −2.242
  ΔΔCT, PDP1: −0.422
  ΔΔCT, PIK3R1: −0.119
  ΔΔCT, PLEKHF1: 0.139
  ΔΔCT, POU2F1: 0.048
  ΔΔCT, POU2F2: −0.574
  ΔΔCT, RASA3: 0.009
  ΔΔCT, RHOB: −1.763
  ΔΔCT, SESN1: 0.041
  ΔΔCT, SGK1: −1.154
  ΔΔCT, SLC10A6: −0.369
  ΔΔCT, SLC19A2: 0.410
  ΔΔCT, SLC22A5: 0.236
  ΔΔCT, SNTA1: 0.119
  ΔΔCT, SPHK1: 0.022
  ΔΔCT, STAT5A: −0.064
  ΔΔCT, STAT5B: 0.330
  ΔΔCT, TNFAIP3: 0.250
  ΔΔCT, TSC22D3: −1.695
  ΔΔCT, USP2: −0.585
  ΔΔCT, USPS4: 0.286
  ΔΔCT, VDR: −0.730
  ΔΔCT, ZHX3: −0.730
  ΔΔCT, ZNF281: 0.871
